{"source": "patent US8883504B2", "about": "“Cell differentiation suppressing agent, method of culturing cells using the same, culture solution, and cultured cell line” (Asahi Kasei Kabushiki Kaisha, priority 2003, dated 2014)", "key": {"[1]": {"system": "Nanog gene", "assay": "Nanog gene expression level by real time PCR (ES cell differentiation inhibition assay 3)", "format": "cell-based, mouse", "settings": "D3ES cells, 4 μg/mL, 1 day, GAPDH internal standard, FIG. 7", "protocol": "For the D3ES cells prepared by the method described in (3) preparation of a mouse ES cell of Example 1, 7.85×10^5 cells were seeded in a 10 cm-diameter cell culture dish coated previously with a 0.1% aqueous gelatin solution to make 10 mL of the ES cell assay medium. The differentiation inhibiting agent B of the present invention in the final concentration of 4 μg/mL or ESGRO in the final concentration of 1×10^3 unit/mL was added to each dish, and culturing was carried out at 37° C. in 5% CO2 incubator for 1 day.\nThe total RNA was extracted from the ES cell cultured by the method shown in (3) ES cell differentiation inhibition assay 3 as described above by using ISOGEN (K.K. Nippon Gene Corp. Japan made) by the attached method. In this method, the cell was collected in a 15 mL sterilized tube, centrifuged at 1,000 rpm for about 5 minutes by using the table centrifuge (TOMY SEIKO made) to make pellets. The supernatant was removed, the pellets were washed twice with 10 mL of PBS, and then, transferred to a 1.5 mL Eppendorf tube. The pellets were dissolved in 1 ml ISOGENE and left stand at room temperature for 5 minutes and, then, added with 0.2 mL of chloroform (Wako Pure Chemicals), shaken for 15 seconds, and left stand at room temperature for 2 or 3 minutes. Centrifugation was carried out at 4° C. at 10,000 rpm for 15 minutes by using the micro centrifuge (TOMY SEIKO made), 400 μL of the supernatant was transferred to a fresh 1.5 mL Eppendorf tube. 500 μL of isopropanol (Wako Pure Chemicals) was added and the mixture was left stand at room temperature for 10 minutes and, then, was centrifuged at 4° C. at 10,000 rpm for 10 minutes by using the micro centrifuge. The supernatant was removed and, then, 1 mL of a 70% ethanol aqueous solution was added. The mixture was shaken and then was centrifuged at 4° C. at 10,000 rpm for about 5 minutes by using the micro centrifuge. The supernatant was removed and the precipitation was dried and, then, dissolved in 30 μL of distilled water to obtain the total RNA solution.\nThe cDNA was synthesized by using 2 μg of the total RNA obtained by such the way as the template, using DeoxyribonucleaseI (Amplification Grade) (Invitrogen Corp. made) and SuperScript III First-Strand Synthesis System for RT-PCR (Invitrogen Corp. made, 18080-051) by the attached protocol. In this step, 1 μL of 10× DNaseI Reaction Buffer, 1 μL of 10× DNaseI (all these were of Invitrogen Corp. made) were added to 2 μg of the total RNA to give the total volume of 10 μL by adding distilled water to prepare the reaction solution, and then incubation was carried out at room temperature for 10 minutes. 1 μL of 25 mM EDTA solution was added, and the mixture was heated at 65° C. for 10 minutes and then, cooled to room temperature. 8 μL of the reaction solution was taken out, and 1 μL of […] Oligo(dT) 20 primer and 1 μL of 10 mM dNTP Mix were added, and incubation was carried out at 65° C. for 5 minutes. The reaction solution was placed on ice for 1 minute, and then 2 μL of 10× RT Buffer, 4 μL of 25 mM MgCl2, 2 μL of 0.1 M DTT, 1 μL of RNaseOUT (Invitrogen Corp. made) and 1 μL of SuperScript III RT were added for incubation at 50° C. for 50 minutes. Subsequently, incubation was carried out at 85° C. for 5 minutes, and then the mixture was left stand on ice for 1 min. […] The expression level of the Nanog gene and the glyceraldehyde-3-phosphate dehydrogenase (GAPDH) gene as the internal standard were measured. […]"}, "[2]": {"system": "SSEA-1 antigen", "assay": "Evaluation of the expression level of SSEA-1 antigen 1 (flow cytometry)", "format": "cell-based, mouse", "settings": "D3ES cells, 7 days, FIG. 8", "protocol": "For the D3ES cells prepared by the method described in (3) preparation of a mouse ES cell of Example 1, 8×10^4 cells were seeded in a 10 cm-diameter cell culture dish coated previously with a 0.1% aqueous gelatin solution to make 10 mL of the ES cell assay medium. 1 mL of the differentiation inhibiting agent A to F, which were dissolved in dimethylsulfoxide (DMSO) or culture medium or their mixture to make 40 μg/mL per each dish, or ESGRO, which was adjusted to make 10^4 unit/mL, was added, and culturing was carried out at 37° C. in 5% […] incubator for 7 days. To the culture medium was added DMSO to make the final concentration 0.1% or lower.\nThe cells cultured in (1) ES cell differentiation inhibition assay 2 as described above were washed twice with PBS, and were removed from the dish with a cell scraper. 300 μL of Hanks balanced salt solution (HBSS, Invitrogen Corp. made) containing 2% FBS was added to give 6×10^5 cells. 30 μL of MX-SSEA-1 antibody (Kyowa Medex Corp. made) diluted 50 folds with HBSS was added, and left stand for 40 minutes on ice. […] The sample used for flow cytometry was measured after passed through a nylon mesh with a 100 μm pore size to eliminate a coagulated mass. […]"}}}
{"smiles": "CC1(C)Cc2ccccc2C(=C(N=Nc2cccc(Cl)c2)C(N)=O)N1", "note": "[C, 2-(3-chloro-phenylazo)-2-(3,3-dimethyl-3,4-dihydro-2H-isoquinoline-1-ylidene)-acetamide]", "values": [{"measurement": "expression level of Nanog gene in comparison with medium without agent and medium containing 1,000 units/mL of ESGRO", "setting": "[1]", "result": "increased similarly to the differentiation inhibiting agents B"}, {"measurement": "average fluorescence intensity per 1 cell (SSEA-1 antigen expression intensity per 1 cell) in comparison with medium without agent", "setting": "[2]", "result": "significantly high"}]}
{"smiles": "CC1(C)Cc2ccccc2C(=C(N=Nc2cccc([N+](=O)[O-])c2)C(N)=O)N1", "note": "[E, 2-(3,3-dimethyl-3,4-dihydro-2H-isoquinoline-1-ylidene)-2-(3-nitro-phenylazo)-acetamide]", "values": [{"measurement": "expression level of Nanog gene in comparison with medium without agent and medium containing 1,000 units/mL of ESGRO", "setting": "[1]", "result": "increased similarly to the differentiation inhibiting agents B"}, {"measurement": "average fluorescence intensity per 1 cell (SSEA-1 antigen expression intensity per 1 cell) in comparison with medium without agent", "setting": "[2]", "result": "significantly high"}]}
{"smiles": "COc1ccc(N=NC(C(N)=O)=C2NC(C)(C)Cc3ccccc32)cc1", "note": "[F, 2-(3,3-dimethyl-3,4-dihydro-2H-isoquinoline-1-ylidene)-2-(4-methoxy-phenylazo)-acetamide]", "values": [{"measurement": "expression level of Nanog gene in comparison with medium without agent and medium containing 1,000 units/mL of ESGRO", "setting": "[1]", "result": "increased similarly to the differentiation inhibiting agents B"}]}
{"smiles": "CC(=O)c1ccc(/N=N/C(C(N)=O)=C2/NC(C)(C)Cc3ccccc32)cc1", "note": "[compound B, 2-(4-acetyl-phenylazo)-2-(3,3-dimethyl-3,4-dihydro-2H-isoquinoline-1-ylidene)-acetamide]", "values": [{"measurement": "expression level of Nanog gene in comparison with medium without agent and medium containing 1,000 units/mL of ESGRO", "setting": "[1]", "result": "increased significantly"}]}
